25 molecules from PubChem BioAssay AID328 (DTP/NCI, 2004) can be followed below.

Molecules are shown by their SMILES. Values joined by “and” are separate entries in the source; they are usually repeats but may differ in a detail not shown here. Equal values may be shown once. Inconclusive results and toxic doses are left out.

The test relates to BDF1 mice, P388 leukemia ip, median survival T/C. Put plainly: NCI In Vivo Anticancer Drug Screen. Data for tumor model P388 Leukemia (intraperitoneal) in B6D2F1 (BDF1) mice. The conditions noted are these: endpoint: median survival time, higher = longer survival. Summed up: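 Read-out is survival of treated animals expressed relative to the vehicle group, as a T/C ratio.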
[1] abbreviates: dose: 200.0 mg/kg/injection, schedule: Q04DX003 (ip), vehicle: saline with Tween-80.
Setting [2] is: dose: 50.0 mg/kg/injection, schedule: Q04DX003 (ip), vehicle: Klucel (hydroxypropylcellulose) (HPC).
Where [3] appears, read: dose: 100.0 mg/kg/injection, schedule: Q01DX009 (ip), vehicle: Klucel (hydroxypropylcellulose) (HPC).
Setting [4] is: dose: 100.0 mg/kg/injection, schedule: Q04DX003 (ip), vehicle: Klucel (hydroxypropylcellulose) (HPC).
Where [5] appears, read: dose: 50.0 mg/kg/injection, schedule: Q01DX009 (ip), vehicle: Klucel (hydroxypropylcellulose) (HPC).
[6] abbreviates: dose: 200.0 mg/kg/injection, schedule: Q01DX009 (ip), vehicle: Klucel (hydroxypropylcellulose) (HPC).
Where [7] appears, read: dose: 200.0 mg/kg/injection, schedule: Q04DX003 (ip), vehicle: Klucel (hydroxypropylcellulose) (HPC).
[8] abbreviates: dose: 100.0 mg/kg/injection, schedule: Q01DX001 (ip), vehicle: saline.
Where [9] appears, read: dose: 200.0 mg/kg/injection, schedule: Q01DX001 (ip), vehicle: saline.
Where [10] appears, read: dose: 400.0 mg/kg/injection, schedule: Q01DX001 (ip), vehicle: saline.
Setting [11] is: dose: 400.0 mg/kg/injection, schedule: Q01DX009 (ip), vehicle: Klucel (hydroxypropylcellulose) (HPC).
[12] abbreviates: dose: 50.0 mg/kg/injection, schedule: Q01DX009 (ip), vehicle: saline with Tween-80.
Where [13] appears, read: dose: 100.0 mg/kg/injection, schedule: Q04DX003 (ip), vehicle: saline with Tween-80.
The mark [14] stands for this setting: dose: 400.0 mg/kg/injection, schedule: Q04DX003 (ip), vehicle: saline with Tween-80.
[15] abbreviates: dose: 100.0 mg/kg/injection, schedule: Q01DX009 (ip), vehicle: saline with Tween-80.
Setting [16] is: dose: 200.0 mg/kg/injection, schedule: Q01DX009 (ip), vehicle: saline with Tween-80.
Setting [17] is: dose: 400.0 mg/kg/injection, schedule: Q01DX009 (ip), vehicle: saline with Tween-80.
[18] abbreviates: dose: 400.0 mg/kg/injection, schedule: Q04DX003 (ip), vehicle: Klucel (hydroxypropylcellulose) (HPC).

Turning to `Oc1c(Br)ccc2c(O)c(Br)ccc12`, the T/C (dose: 132.0 mg/kg/injection, schedule: Q04DX003 (ip), vehicle: saline with Tween-80) was 109 % of control; the T/C under setting [1] is 114 % of control; the T/C (dose: 300.0 mg/kg/injection, schedule: Q04DX003 (ip), vehicle: saline with Tween-80) was 95 % of control.
As to `N#CC(C#N)=Cc1cccc([N+](=O)[O-])c1`, the T/C is 90 % of control and 115 % of control (dose: 25.0 mg/kg/injection, schedule: Q01DX009 (ip), vehicle: Klucel (hydroxypropylcellulose) (HPC)); 113 % of control under setting [2]; 95 % of control under setting [3]; 113 % of control under setting [4].
Turning to `Cc1c(NC(=O)Nc2ccccc2F)c(=O)n(-c2ccccc2)n1C`, the T/C under setting [5] was 100 % of control, the T/C under setting [3] is 90 % of control and the T/C under setting [6] was 95 % of control.
For `COc1cccc2c1C(=O)c1c(O)c3c(c(O)c1C2=O)C[C@@](O)(/C(C)=N/NC(=O)c1ccc(O)cc1)C[C@@H]3OC1CC(N)C(O)C(C)O1` (stereo partly specified), the T/C (dose: 0.25 mg/kg/injection, schedule: Q01DX009 (ip), vehicle: water) was 120 % of control; the T/C (dose: 1.0 mg/kg/injection, schedule: Q01DX009 (ip), vehicle: water) was 164 % of control and 223 % of control; the T/C (dose: 2.0 mg/kg/injection, schedule: Q01DX009 (ip), vehicle: water) is 156 % of control and 207 % of control; the T/C (dose: 4.0 mg/kg/injection, schedule: Q01DX009 (ip), vehicle: water) is 224 % of control and 225 % of control; the T/C (dose: 8.0 mg/kg/injection, schedule: Q01DX009 (ip), vehicle: water) is 245 % of control.
Regarding `O=C(O)/C(=C\c1ccncc1)c1cccc2ccccc12`, the T/C by setting is: under setting [2], 100 % of control; under setting [4], 100 % of control; under setting [7], 100 % of control.
As for `O=[N+]([O-])c1ccc(OCc2ccc(S(=O)(=O)F)c(Cl)c2)c(Cl)c1`, the T/C runs as follows: under setting [8], 115 % of control; under setting [3], 102 % of control; under setting [9], 100 % of control; under setting [6], 100 % of control; under setting [10], 103 % of control; under setting [11], 103 % of control.
Regarding `O=C(Nc1nncs1)c1cccs1`, the T/C (dose: 50.0 mg/kg/injection, schedule: Q04DX002 (ip), vehicle: saline with Tween-80) is 109 % of control; the T/C (dose: 100.0 mg/kg/injection, schedule: Q04DX002 (ip), vehicle: saline with Tween-80) was 93 % of control; the T/C (dose: 600.0 mg/kg/injection, schedule: Q04DX002 (ip), vehicle: saline with Tween-80) was 190 % of control.
As to `O=S1(=O)OCc2ccccc21`, the T/C is 108 % of control under setting [5]; 86 % of control under setting [2]; 91 % of control under setting [3]; 100 % of control and 104 % of control under setting [4]; 92 % of control and 95 % of control under setting [7].
On to `CC(=O)Nc1cccc(Cl)c1C`, for which the T/C is, setting by setting: (dose: 8.25 mg/kg/injection, schedule: Q01DX009 (ip), vehicle: saline with Tween-80) 100 % of control; (dose: 12.4 mg/kg/injection, schedule: Q01DX009 (ip), vehicle: saline with Tween-80) 104 % of control; (dose: 18.7 mg/kg/injection, schedule: Q01DX009 (ip), vehicle: saline with Tween-80) 100 % of control; (dose: 28.2 mg/kg/injection, schedule: Q01DX009 (ip), vehicle: saline with Tween-80) 100 % of control; under setting [5], 100 % of control; under setting [12], 100 % of control. Moreover, the T/C runs as follows: under setting [3], 100 % of control; under setting [13], 95 % of control; under setting [6], 86 % of control; under setting [1], 100 % of control; under setting [14], 100 % of control.
As for `COC(=O)c1cc(=O)nc(N/N=C/c2ccco2)s1`, the T/C is, setting by setting: (dose: 50.0 mg/kg/injection, schedule: Q01DX005 (ip), vehicle: saline with Tween-80) 94 % of control; (dose: 100.0 mg/kg/injection, schedule: Q01DX005 (ip), vehicle: saline with Tween-80) 89 % of control; (dose: 200.0 mg/kg/injection, schedule: Q01DX005 (ip), vehicle: saline with Tween-80) 87 % of control.
For the molecule `CC(C)COC(=O)c1cc(O)c(O)c(O)c1`, the T/C runs as follows: (dose: 25.0 mg/kg/injection, schedule: Q01DX009 (ip), vehicle: saline with Tween-80) 95 % of control; under setting [12], 91 % of control; under setting [15], 112 % of control; under setting [13], 105 % of control; under setting [16], 103 % of control; under setting [1], 115 % of control. Besides, the T/C under setting [17] was 103 % of control and the T/C under setting [14] is 115 % of control.
For `Cc1nc(N)ncc1CCC1OCCO1`, the T/C under setting [8] is 100 % of control, the T/C under setting [9] is 109 % of control and the T/C under setting [10] was 111 % of control.
Consider `O=S1(=O)CC(S(=O)(=O)O)C(S(=O)(=O)O)C1` (stereo unspecified), for which the T/C by setting is: under setting [2], 100 % of control; under setting [8], 108 % of control; under setting [4], 100 % of control; under setting [9], 100 % of control; under setting [7], 100 % of control; under setting [10], 108 % of control.
For the molecule `CC(=O)[C@H]1CC[C@H]2[C@@H]3CCC4=CC(=O)[C@H](C)C[C@]4(C)[C@H]3C(=O)C[C@]12C`, the T/C was 90 % of control under setting [15] and 95 % of control under setting [16].
With `CC(C(N)C(=O)O)C(O)c1ccc(O)cn1` (stereo unspecified), the T/C (dose: 45.0 mg/kg/injection, schedule: Q01DX009 (ip), vehicle: water) is 109 % of control; the T/C (dose: 90.0 mg/kg/injection, schedule: Q01DX009 (ip), vehicle: water) was 102 % of control; the T/C (dose: 180.0 mg/kg/injection, schedule: Q01DX009 (ip), vehicle: water) is 102 % of control.
On to `Cc1cccc(NC2=C(C#N)C(=O)NC3(CCCC3)S2)c1`, for which the T/C runs as follows: under setting [12], 119 % of control; under setting [15], 103 % of control; under setting [16], 100 % of control.
`C(COCCOCC1CO1)OCCOCC1CO1` (stereo unspecified): the T/C was 109 % of control (dose: 50.0 mg/kg/injection, schedule: Q01DX010 (ip), vehicle: saline); 150 % of control (dose: 200.0 mg/kg/injection, schedule: Q01DX010 (ip), vehicle: saline); 154 % of control and 172 % of control (dose: 400.0 mg/kg/injection, schedule: Q01DX010 (ip), vehicle: saline).
As to `C(=N\Nc1nc2ccccc2o1)/c1ccncc1`, the T/C under setting [3] is 100 % of control and 104 % of control; the T/C under setting [4] is 100 % of control; the T/C under setting [6] was 109 % of control; the T/C under setting [7] is 95 % of control; the T/C under setting [11] is 105 % of control and 109 % of control; the T/C under setting [18] was 100 % of control.
As for `COc1ccc(-c2cnc(C(N)=O)c(=O)[nH]2)cc1`, the T/C was 104 % of control under setting [15], 108 % of control under setting [16] and 100 % of control under setting [17].
On to `Cc1ccc(C)c2c1CCC2C` (stereo unspecified), for which the T/C runs as follows: under setting [15], 123 % of control; under setting [16], 96 % of control.
On to `COC(=O)C(C)CN1CCCCC1` (stereo unspecified), for which the T/C was 105 % of control (dose: 50.0 mg/kg/injection, schedule: Q01DX009 (ip), vehicle: saline); 110 % of control (dose: 100.0 mg/kg/injection, schedule: Q01DX009 (ip), vehicle: saline); 110 % of control (dose: 200.0 mg/kg/injection, schedule: Q01DX009 (ip), vehicle: saline).
Turning to `Cc1c(-c2ccc(C(=N)N)cc2)oc(-c2ccc(C(=N)N)cc2)c1C`, the T/C (dose: 3.13 mg/kg/injection, schedule: Q01DX009 (ip), vehicle: saline with Tween-80) was 109 % of control.
On to `Cc1cc(N(CCO)CCO)c2cc3ccc4cccc5ccc(c2n1)c3c45`, for which the T/C is 98 % of control (dose: 25.0 mg/kg/injection, schedule: Q04DX003 (ip), vehicle: saline with Tween-80); 110 % of control (dose: 50.0 mg/kg/injection, schedule: Q04DX003 (ip), vehicle: saline with Tween-80); 93 % of control and 100 % of control under setting [13].
Take `O=C(NC(CO)C(=O)OCc1ccccc1)OCc1ccccc1` (stereo unspecified): the T/C runs as follows: under setting [4], 95 % of control; under setting [13], 100 % of control; under setting [7], 87 % of control; under setting [1], 100 % of control; under setting [18], 91 % of control; under setting [14], 100 % of control.
For `O=C(N/N=C/c1ccc(Cl)cc1Cl)c1ccccc1`, the T/C by setting is: under setting [5], 110 % of control; under setting [3], 110 % of control; under setting [6], 95 % of control.
